Values joined by “and” are separate entries in the source; they are usually repeats but may differ in a detail not shown here. Equal entries are not always repeated. Toxic doses and inconclusive results are not listed. Cut-off read from the data, not from the text of the source: active = T/C of 150% or more; inactive = T/C below 125%.
Test system: L1210 leukemia ip in BDF1 mice, survival T/C
Assay: NCI In Vivo Anticancer Drug Screen. Data for tumor model L1210 Leukemia (intraperitoneal) in B6D2F1 (BDF1) mice
Settings: endpoint: mean survival time, higher = longer survival
Outline: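 Read-out is survival time, reported as the treated-group measurement over the vehicle-control measurement.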

[1] = dose: 100.0 mg/kg/injection, schedule: Q04DX002 (ip), vehicle: Klucel (hydroxypropylcellulose) (HPC)
[2] = dose: 200.0 mg/kg/injection, schedule: Q04DX002 (ip), vehicle: Klucel (hydroxypropylcellulose) (HPC)
[3] = dose: 100.0 mg/kg/injection, schedule: Q01DX009 (ip), vehicle: Klucel (hydroxypropylcellulose) (HPC)
[4] = dose: 100.0 mg/kg/injection, schedule: Q04DX003 (ip), vehicle: Klucel (hydroxypropylcellulose) (HPC)
[5] = dose: 200.0 mg/kg/injection, schedule: Q01DX009 (ip), vehicle: Klucel (hydroxypropylcellulose) (HPC)
[6] = dose: 200.0 mg/kg/injection, schedule: Q04DX003 (ip), vehicle: Klucel (hydroxypropylcellulose) (HPC)
[7] = dose: 400.0 mg/kg/injection, schedule: Q01DX009 (ip), vehicle: Klucel (hydroxypropylcellulose) (HPC)
[8] = dose: 400.0 mg/kg/injection, schedule: Q04DX003 (ip), vehicle: Klucel (hydroxypropylcellulose) (HPC)
[9] = dose: 400.0 mg/kg/injection, schedule: Q04DX002 (ip), vehicle: Klucel (hydroxypropylcellulose) (HPC)
[10] = dose: 100.0 mg/kg/injection, schedule: Q01DX001 (ip), vehicle: saline with Tween-80
[11] = dose: 200.0 mg/kg/injection, schedule: Q01DX001 (ip), vehicle: saline with Tween-80
[12] = dose: 400.0 mg/kg/injection, schedule: Q01DX001 (ip), vehicle: saline with Tween-80
[13] = dose: 100.0 mg/kg/injection, schedule: Q04DX003 (ip), vehicle: saline
[14] = dose: 200.0 mg/kg/injection, schedule: Q04DX003 (ip), vehicle: saline
[15] = dose: 400.0 mg/kg/injection, schedule: Q04DX003 (ip), vehicle: saline

Measured: T/C

Cc1ccc(C/C(Cc2ccccc2)=N/O)cc1
inactive: dose: 25.0 mg/kg/injection, schedule: Q04DX002 (ip), vehicle: Klucel (hydroxypropylcellulose) (HPC) 101 % of control | dose: 50.0 mg/kg/injection, schedule: Q04DX002 (ip), vehicle: Klucel (hydroxypropylcellulose) (HPC) 111 % of control | [1] 93 % of control | dose: 100.0 mg/kg/injection, schedule: Q04DX002 (ip), vehicle: saline 111 % of control | [2] 108 % of control | dose: 200.0 mg/kg/injection, schedule: Q04DX002 (ip), vehicle: saline 97 % of control | dose: 400.0 mg/kg/injection, schedule: Q04DX002 (ip), vehicle: saline 87 % of control

NC(=O)Nc1cccc(C(=O)O)c1
inactive: [3] 89 % of control | [4] 92 % of control | [5] 87 % of control | [6] 92 % of control | [7] 87 % of control | [8] 96 % of control

O=C(O)c1c[nH]c2c(ccc3ccccc32)c1=O
inactive: [1] 103 % of control | [2] 122 % of control | [9] 92 % of control

Cn1c(=O)cc[nH]c1=O
inactive: [10] 95 % of control | [11] 98 % of control | [12] 106 % of control

Nc1ccc(CCCCc2ccccc2)c(Cl)c1
inactive: dose: 75.0 mg/kg/injection, schedule: Q01DX001 (ip), vehicle: saline 90 % of control | dose: 150.0 mg/kg/injection, schedule: Q01DX001 (ip), vehicle: saline 96 % of control

O=C1OC(c2cccc(Cl)c2)=N/C1=C\C=C/c1ccccc1
inactive: dose: 100.0 mg/kg/injection, schedule: Q01DX001 (ip), vehicle: carboxymethylcellulose (CMC) 95 % of control | dose: 100.0 mg/kg/injection, schedule: Q01DX009 (ip), vehicle: carboxymethylcellulose (CMC) 89 % of control and 92 % of control | dose: 200.0 mg/kg/injection, schedule: Q01DX009 (ip), vehicle: carboxymethylcellulose (CMC) 87 % of control and 92 % of control | dose: 400.0 mg/kg/injection, schedule: Q01DX001 (ip), vehicle: carboxymethylcellulose (CMC) 93 % of control

CC(=O)Oc1cccc2cc3cc(C)cc(OC(C)=O)c3c(OC(C)=O)c12
inactive: dose: 0.5 mg/kg/injection, schedule: Q01DX001 (ip), vehicle: saline 106 % of control | dose: 1.0 mg/kg/injection, schedule: Q01DX001 (ip), vehicle: saline 104 % of control | dose: 2.0 mg/kg/injection, schedule: Q01DX001 (ip), vehicle: saline 108 % of control | dose: 4.0 mg/kg/injection, schedule: Q01DX001 (ip), vehicle: saline 110 % of control | dose: 5.0 mg/kg/injection, schedule: Q01DX001 (ip), vehicle: saline 108 % of control | dose: 8.0 mg/kg/injection, schedule: Q01DX001 (ip), vehicle: saline 116 % of control

CCOC(=O)C(CCCO)C(=O)OCC
inactive: [10] 98 % of control | [11] 96 % of control | [12] 91 % of control

O=c1c2c(oc3c(Cl)cc(Cl)cc13)CCCC2
inactive: dose: 50.0 mg/kg/injection, schedule: Q04DX002 (ip), vehicle: gum acacia 100 % of control | dose: 100.0 mg/kg/injection, schedule: Q04DX002 (ip), vehicle: gum acacia 104 % of control | dose: 200.0 mg/kg/injection, schedule: Q04DX002 (ip), vehicle: gum acacia 104 % of control

CCOC(=O)N(CC)c1ccccc1
inactive: [3] 103 % of control | [13] 88 % of control | [5] 107 % of control | [14] 101 % of control | [7] 102 % of control | [15] 98 % of control

CC1=CC(=O)[C@@H](O)[C@]2(C)[C@H]3[C@@]4(O)OC[C@]35[C@H]([C@@H](C)[C@H]4O)[C@@H](O)C(=O)O[C@@H]5C[C@@H]12
inactive: dose: 2.5 mg/kg/injection, schedule: Q01DX009 (ip), vehicle: saline 107 % of control | dose: 5.0 mg/kg/injection, schedule: Q01DX009 (ip), vehicle: saline 96 % of control | dose: 10.0 mg/kg/injection, schedule: Q01DX009 (ip), vehicle: saline 102 % of control | dose: 20.0 mg/kg/injection, schedule: Q01DX009 (ip), vehicle: saline 100 % of control

OCC1(CO)CCCCO1
inactive: [13] 96 % of control | [14] 95 % of control | [15] 101 % of control

CN(C)CCCN1CC2C3CCCCC3=C3CCCCC3C2C1 (stereo not given)
inactive: dose: 50.0 mg/kg/injection, schedule: Q01DX001 (ip), vehicle: saline 98 % of control

CC(=O)OCC1OC(OC(C)=O)C(OC(C)=O)C(OC(C)=O)C1OC(C)=O (stereo not given)
inactive: dose: 100.0 mg/kg/injection, schedule: Q01DX001 (ip), vehicle: Klucel (hydroxypropylcellulose) (HPC) 101 % of control | [4] 97 % of control | dose: 200.0 mg/kg/injection, schedule: Q01DX001 (ip), vehicle: Klucel (hydroxypropylcellulose) (HPC) 94 % of control | [6] 93 % of control | dose: 400.0 mg/kg/injection, schedule: Q01DX001 (ip), vehicle: Klucel (hydroxypropylcellulose) (HPC) 105 % of control | [8] 102 % of control

CC12CCC(O)CC1CCC1C3CCCC(=O)C3CCC12 (stereo not given)
inactive: dose: 50.0 mg/kg/injection, schedule: Q01DX009 (sc), vehicle: steriod suspending solution 103 % of control | dose: 100.0 mg/kg/injection, schedule: Q01DX009 (sc), vehicle: steriod suspending solution 97 % of control | dose: 200.0 mg/kg/injection, schedule: Q01DX009 (sc), vehicle: steriod suspending solution 94 % of control

CC(Cc1ccccc1)NCCCCl (stereo not given)
inactive: dose: 15.0 mg/kg/injection, schedule: Q01DX001 (ip), vehicle: carboxymethylcellulose (CMC) 89 % of control | dose: 30.0 mg/kg/injection, schedule: Q01DX001 (ip), vehicle: carboxymethylcellulose (CMC) 95 % of control | dose: 60.0 mg/kg/injection, schedule: Q01DX001 (ip), vehicle: carboxymethylcellulose (CMC) 93 % of control

CN(C)c1cc(Br)c(C=O)cc1[N+](=O)[O-]
inactive: [3] 94 % of control | [4] 102 % of control | [5] 103 % of control | [6] 93 % of control | [7] 92 % of control | [8] 98 % of control

O=C1c2ccccc2C(=O)C2CC(c3ccccc3)=C(c3ccccc3)CC12 (stereo not given)
inactive: [1] 96 % of control | [2] 96 % of control | [9] 100 % of control

Cc1ccc2c(c1)NP(=S)(c1ccccc1)N2 (stereo not given)
inactive: dose: 100.0 mg/kg/injection, schedule: Q04DX003 (ip), vehicle: saline with Tween-80 103 % of control | dose: 200.0 mg/kg/injection, schedule: Q04DX003 (ip), vehicle: saline with Tween-80 103 % of control | dose: 400.0 mg/kg/injection, schedule: Q04DX003 (ip), vehicle: saline with Tween-80 100 % of control
